For series [1], the system named is patients pretreated with lignocaine admixed with epinephrine. The following applies: 0.5-1.5 mg; '714 patent Example 1, Table 1; cited from earlier work.
The subject of the next series is patients. The following applies: systemic doses; usually in association with marked hypotensive episodes; cited from earlier work.
The subject of series [2] is local anesthesia from 2% polocaine (mepivacaine hydrochloride) with levonordefrin in healthy, male human subjects. The series can be described thus: Human subjects study of local anesthesia reversal by LARA versus saline vehicle (bilateral injections). It counts as in vivo. The following applies: three subjects; 0.05 mg/ml phentolamine-mesylate, 1.6 ml (0.08 mg). The method, then: An injection of the physiological saline vehicle (without phentolamine-mesylate) served as the control. […] This was followed by injection of the phentolamine-mesylate containing local anesthetic reversal agent (LARA) into one side of the oral cavity, and injection of the saline vehicle (control) solution into the opposite side of the oral cavity. The time to reversal of the local anesthetic effect on both sides was then recorded to determine whether there is a difference between the two sides.
The local anesthetic used was 2% polocaine (mepivacaine hydrochloride) with levonordefrin (1:20,000=0.05 mg/ml) (levonordefrin injection, USP) (Astra USA, Inc., Westborough, Mass. 01581). Levonordefrin is a sympathomimetic amine with a pharmacological profile similar to that of epinephrine, but with a lower potency.
Three healthy, male human subjects, age 34-50, volunteered to have local anesthetic injected in the mouth bilaterally under the lip in an easily repeatable location. The exact time of each injection was recorded. The position chosen was above (apical) the prominence of the root of the upper cuspid teeth. This is a common site selected to numb the cuspids, lateral incisors and upper lip. The volume of the local anesthetic injected was 1.7+0.1 ml on each side of the mouth. […]

“Also recorded” adds a separate entry of the source. Structures can show the parent of a compound that is named as a salt.

These results are taken from US7261889B2, “Local anesthetic methods and kits” (Novalar Pharmaceuticals, Inc., priority 2000, dated 2007).

Take `Cc1ccc(N(CC2=NCCN2)c2cccc(O)c2)cc1` [phentolamine]: the duration of anesthesia result in series [1] is “reduction in the duration of anesthesia with increasing amounts”. In the series with patients, the “side effects reported following administration” value is “Myocardial infarction, cerebrovascular spasm, and cerebrovascular occlusion have been reported”.
`Cc1ccc(N(CC2=NCCN2)c2cccc(O)c2)cc1` [phentolamine-mesylate, phentolamine mesylate]: in series [2], the “local anesthesia reversal compared to saline side (in words)” value is on record as “highly effective anesthesia reversal” and the side-effects result is listed as “no side-effects of any kind were noted; also recorded: without any side-effects whatsoever”.
